Drawing on patent US11566007B2, “Ras inhibitors” (Revolution Medicines, Inc., priority 2019, dated 2023), this text covers IC50 for 12 compounds.

One test concerns NCI-H358 (K-Ras G12C). The experiment in a line: CellTiter-Glo cell viability assay, NCI-H358. To be noted: Homo sapiens, NCI-H358, 120 h, NCI-H358, 5-day treatment; class symbols; read-out: Additional H358 Cell Viability assay data (K-Ras G12C, IC50). It is filed as cell-based, human. The gist of the method: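 Cells seeded, compound added directly, 5-day exposure. Plates to RT ~30 min, CellTiter-Glo luminescence read. Normalized to DMSO avg (x100); 4-parameter logistic fit.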

A further test addresses NRAS WT (Homo sapiens (Human), UniProt P01111+P62937). The test can be described thus: Ras-Raf (BRAF RBD) disruption / FRET / MOA assay, NRAS WT. It is filed as biochemical. Conditions: read-out: IC50* NRAS WT FRET data. Summed up:
(§1)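 Compounds were tested as a 10-point 3-fold dilution series from 30 μM final for their ability to drive ternary complex formation between nucleotide-loaded Ras and cyclophilin A, displacing the BRAF RBD. After 3 h at 25° C., anti-His Eu-W1024 (10 nM) and anti-GST allophycocyanin (50 nM) were added for 1.5 h. A TR-FRET ratio decrease versus DMSO gave IC50.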

A further test has as its target K-Ras G12C (Homo sapiens (Human), UniProt P01116+P62937, G12C). The experiment in a line: Ras-Raf (BRAF RBD) disruption / FRET / MOA assay, KRAS G12C. It is filed as biochemical. To be noted: KRAS G12C; Ras-Raf disruption/FRET/MOA assay; read-out: IC50* KRAS G12C FRET data. Summed up: (§2)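 TR-FRET read-out: a drop in ratio relative to DMSO wells marks disruption of the Ras:RAF complex, reported as IC50. Compounds (3-fold series, 10 points, top 30 μM final) incubated 3 h at 25° C before Eu-anti-His 10 nM and APC-anti-GST 50 nM, 1.5 h more.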

The target of the next test is NRAS Q61K (Homo sapiens (Human), UniProt P01111+P62937, Q61K). The test can be described thus: Ras-Raf (BRAF RBD) disruption / FRET / MOA assay, NRAS Q61K. The test is classed as biochemical. Conditions: NRAS Q61K; Ras-Raf disruption/FRET/MOA assay; read-out: IC50* NRAS Q61K FRET data. The gist of the method:
as §1

Another test has as its target NRAS G12C (Homo sapiens (Human), UniProt P01111+P62937, G12C). The test can be described thus: Ras-Raf (BRAF RBD) disruption / FRET / MOA assay, NRAS G12C. It is filed as biochemical. Conditions: read-out: IC50* NRAS G12C FRET data. Summed up: as §2
The target in another test is KRAS G12V (Homo sapiens (Human), UniProt P01116+P62937, G12V). The experiment in a line: Ras-Raf (BRAF RBD) disruption / FRET / MOA assay, KRAS G12V. To be noted: read-out: IC50* KRAS G12V FRET data. It is filed as biochemical. Summed up: as §2
Sequence of KRAS G12V (P01116-2 other isoform, or with tags, fused parts or gaps G12V): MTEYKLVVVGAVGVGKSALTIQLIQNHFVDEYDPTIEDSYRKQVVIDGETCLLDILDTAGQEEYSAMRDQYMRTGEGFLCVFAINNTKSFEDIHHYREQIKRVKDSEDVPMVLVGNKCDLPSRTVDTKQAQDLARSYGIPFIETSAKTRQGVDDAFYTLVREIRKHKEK
Sequence of KRAS G12V (P62937 whole entry): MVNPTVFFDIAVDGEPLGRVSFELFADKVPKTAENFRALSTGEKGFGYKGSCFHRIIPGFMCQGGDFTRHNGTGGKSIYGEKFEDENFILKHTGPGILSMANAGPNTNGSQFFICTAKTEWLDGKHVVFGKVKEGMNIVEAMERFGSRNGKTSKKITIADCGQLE
A further test addresses KRAS G12D (Homo sapiens (Human), UniProt P01116+P62937, G12D). The test can be described thus: Ras-Raf (BRAF RBD) disruption / FRET / MOA assay, KRAS G12D. The test is classed as biochemical. Conditions: Ras-Raf disruption/FRET/MOA assay; class symbols; read-out: KRAS G12D FRET data IC50. Summed up: as §2

Sequence of KRAS G12D (P01116-2 other isoform, or with tags, fused parts or gaps G12D): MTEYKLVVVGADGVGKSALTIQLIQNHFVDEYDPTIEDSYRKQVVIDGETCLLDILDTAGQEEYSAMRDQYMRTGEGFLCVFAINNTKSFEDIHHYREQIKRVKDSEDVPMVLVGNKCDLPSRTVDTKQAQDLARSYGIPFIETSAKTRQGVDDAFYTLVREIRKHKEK
Sequence of KRAS G12D (P62937 whole entry): as the sequence (P62937 whole entry) above
Sequence of K-Ras G12C (P01116-2 other isoform, or with tags, fused parts or gaps G12C): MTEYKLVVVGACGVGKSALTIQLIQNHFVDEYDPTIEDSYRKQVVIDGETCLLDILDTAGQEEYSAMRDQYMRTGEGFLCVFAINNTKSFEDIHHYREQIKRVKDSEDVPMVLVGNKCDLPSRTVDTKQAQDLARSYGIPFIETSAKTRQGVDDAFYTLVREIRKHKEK
Sequence of K-Ras G12C (P62937 whole entry): as the sequence (P62937 whole entry) above
Sequence of NRAS G12C (P01111 whole entry G12C): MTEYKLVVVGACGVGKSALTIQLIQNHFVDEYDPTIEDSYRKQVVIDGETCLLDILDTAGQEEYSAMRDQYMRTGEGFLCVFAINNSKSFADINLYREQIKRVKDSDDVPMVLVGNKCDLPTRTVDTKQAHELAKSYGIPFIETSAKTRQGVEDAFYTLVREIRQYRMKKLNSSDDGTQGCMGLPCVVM
Sequence of NRAS G12C (P62937 whole entry): as the sequence (P62937 whole entry) above
Sequence of NRAS Q61K (P01111 whole entry Q61K): as the sequence (P01111 whole entry G12C) above, with C12G, Q61K counted along it
Sequence of NRAS Q61K (P62937 whole entry): as the sequence (P62937 whole entry) above
Sequence of NRAS WT (P01111 whole entry): as the sequence (P01111 whole entry G12C) above, with C12G counted along it
Sequence of NRAS WT (P62937 whole entry): as the sequence (P62937 whole entry) above

The IC50 is the concentration needed to halve the response being measured. For the compound `C=CC(=O)N1CC[C@]2(C1)OCN([C@H](C(=O)N[C@H]1Cc3cccc(c3)-c3ccc4c(c3)c(c(-c3cccnc3[C@H](C)OC)n4CC)CC(C)(C)COC(=O)[C@@H]3CCCN(N3)C1=O)C(C)C)C2=O` (atropisomer, axis not shown) [Example A371], the IC50 in the test with NCI-H358 (K-Ras G12C) is < 10 nM; at NRAS WT it was 1000 to 10000 nM; on K-Ras G12C it was 10 to 100 nM; at NRAS Q61K it was > 10000 nM; on NRAS G12C it was 10 to 100 nM; at KRAS G12V, > 10000 nM. On KRAS G12D, the concentration for half-maximal inhibition (IC50) was > 10000 nM.
Consider `C=CC(=O)N1CC2(CCN2C(=O)N(C)[C@H](C(=O)N[C@H]2Cc3cccc(c3)-c3ccc4c(c3)c(c(-c3cccnc3[C@H](C)OC)n4CC)CC(C)(C)COC(=O)[C@@H]3CCCN(N3)C2=O)C(C)C)C1` (atropisomer, axis not shown) [Example A684], for which the 50% inhibitory concentration (IC50) was < 10 nM in the test with NCI-H358 (K-Ras G12C); 100 to 1000 nM on NRAS WT; < 10 nM on K-Ras G12C; 100 to 1000 nM on NRAS Q61K; < 10 nM at NRAS G12C; 100 to 1000 nM at KRAS G12V. For the same compound, the IC50 at KRAS G12D was 1000 to 10000 nM.
As to `C=CC(=O)N1CCO[C@H]2CN(C(=O)N(C)[C@H](C(=O)N[C@H]3Cc4cccc(n4)-c4ccc5c(c4)c(c(-c4cccnc4[C@H](C)OC)n5CC)CC(C)(C)COC(=O)[C@@H]4CCCN(N4)C3=O)C(C)C)C[C@H]21` (atropisomer, axis not shown) [Example A597], the concentration for half-maximal inhibition (IC50) in the test on NCI-H358 (K-Ras G12C) was < 10 nM; at NRAS WT it was 1000 to 10000 nM; on K-Ras G12C, 10 to 100 nM; on NRAS Q61K, 100 to 1000 nM; at NRAS G12C, 10 to 100 nM; at KRAS G12V, 1000 to 10000 nM. In addition, the IC50 on KRAS G12D is > 10000 nM.
With `C=CC(=O)N1CCN(C(=O)N(C)[C@H](C(=O)N[C@H]2Cc3cc(O)cc(c3)-c3ccc4c(c3)c(c(-c3cccnc3[C@H](C)OC)n4CC)CC(C)(C)COC(=O)[C@@H]3CCCN(N3)C2=O)C(C)C)CC1` (atropisomer, axis not shown) [Example A262], the half-inhibitory concentration (IC50) with NCI-H358 (K-Ras G12C), at NRAS WT, on K-Ras G12C, on NRAS Q61K, on NRAS G12C and on KRAS G12V was 10 to 100 nM throughout. Further, the IC50 on KRAS G12D was 100 to 1000 nM.
As for `C/C=C/C(=O)N1CC2(CCN(C(=O)N(C)[C@H](C(=O)N[C@H]3Cc4nc(cs4)-c4ccc5c(c4)c(c(-c4cccnc4[C@H](C)OC)n5CC)CC(C)(C)COC(=O)[C@@H]4CCCN(N4)C3=O)C(C)C)CC2)C1` (atropisomer, axis not shown) [Example A671], the IC50 lay in the range of 10 to 100 nM in the test with NCI-H358 (K-Ras G12C); 100 to 1000 nM on NRAS WT; 10 to 100 nM on K-Ras G12C; 10 to 100 nM at NRAS Q61K; 10 to 100 nM on NRAS G12C; 100 to 1000 nM at KRAS G12V. In addition, the IC50 at KRAS G12D was in the range of 100 to 1000 nM.
On to `C=CC(=O)N1CC[C@H](C(=O)N(C)[C@H](C(=O)N[C@H]2Cc3cc(F)cc(c3)-c3ccc4c(c3)c(c(-c3cccnc3[C@H](C)OC)n4CC)CC(C)(C)COC(=O)[C@@H]3CCCN(N3)C2=O)C(C)C)C1` (atropisomer, axis not shown) [Example A342], for which the concentration for half-maximal inhibition (IC50) is 10 to 100 nM in the test on NCI-H358 (K-Ras G12C); 1000 to 10000 nM at NRAS WT; 10 to 100 nM at K-Ras G12C; 1000 to 10000 nM on NRAS Q61K; 100 to 1000 nM at NRAS G12C; 1000 to 10000 nM on KRAS G12V. The IC50 at KRAS G12D was 1000 to 10000 nM.
In the case of `CCn1c(-c2cccnc2[C@H](C)OC)c2c3cc(ccc31)C1=CCCN(C1)C[C@H](NC(=O)[C@@H](COC1CN(C(=O)C#CC(C)(C)N(C)C)C1)C(C)C)C(=O)N1CCC[C@H](N1)C(=O)OCC(C)(C)C2` (atropisomer, axis not shown) [Example A663, (2R)-2-(((1-(4-(dimethylamino)-4-methylpent-2-ynoyl)405yridine405-3-yl)oxy)methyl)-N-((6^3S,4S)-1^1-ethyl-1^2-(2-((S)-1-methoxyethyl)405yridine-3-yl)-10,10-dimethyl-5,7-dioxo-2^1,2^2,2^3,2^6,6^1,6^2,6^3,6^4,6^5,6^6-decahydro-1^1H-8-oxa-1(5,3)-indola-6(1,3)-pyridazina-2(5,1)-pyridinacycloundecaphane-4-yl)-3-methylbutanamide], the IC50 with NCI-H358 (K-Ras G12C) was < 10 nM; on NRAS WT it was > 10000 nM; on K-Ras G12C it was < 10 nM; on NRAS Q61K it was > 10000 nM; on NRAS G12C it was < 10 nM; on KRAS G12V it was > 10000 nM. For the same compound, the concentration for half-maximal inhibition (IC50) on KRAS G12D was > 10000 nM.
On to `CCn1c(-c2cccnc2[C@H](C)OC)c2c3cc(ccc31)-c1cccc(c1)C[C@H](NC(=O)[C@@H](COC1CN(C(=O)C#CC(C)(C)N(C)CCO)C1)C(C)C)C(=O)N1CCC[C@H](N1)C(=O)OCC(C)(C)C2` (atropisomer, axis not shown) [Example A657], for which the IC50 with NCI-H358 (K-Ras G12C) is < 10 nM; on NRAS WT, > 10000 nM; at K-Ras G12C, 10 to 100 nM; at NRAS Q61K, > 10000 nM; at NRAS G12C, 10 to 100 nM; on KRAS G12V it was > 10000 nM. The half-maximal inhibitory concentration (IC50) on KRAS G12D was > 10000 nM.
Regarding `C=CC(=O)N1CCO[C@H]2CN(C(=O)N(C)[C@H](C(=O)N[C@H]3Cc4cccc(c4)-c4ccc5c(c4)c(c(-c4cccnc4[C@H](C)OC)n5CC)CC(C)(C)COC(=O)[C@@H]4CCCN(N4)C3=O)C(C)C)C[C@H]21` (atropisomer, axis not shown) [Example A610], the IC50 is < 10 nM in the test with NCI-H358 (K-Ras G12C); 100 to 1000 nM at NRAS WT; 10 to 100 nM at K-Ras G12C; 100 to 1000 nM at NRAS Q61K; 10 to 100 nM on NRAS G12C; 1000 to 10000 nM at KRAS G12V. In addition, the half-inhibitory concentration (IC50) at KRAS G12D was 1000 to 10000 nM.
For `CCn1c(-c2cccnc2[C@H](C)OC)c2c3cc(ccc31)-c1cccc(c1)C[C@H](NC(=O)[C@H](C(C)C)N1CO[C@]3(CCN(C(=O)C#CC(C)(C)N4CCC4)C3)C1=O)C(=O)N1CCC[C@H](N1)C(=O)OCC(C)(C)C2` (atropisomer, axis not shown) [Example A351], the half-inhibitory concentration (IC50) in the test on NCI-H358 (K-Ras G12C) was < 10 nM; at NRAS WT, 100 to 1000 nM; on K-Ras G12C, < 10 nM; at NRAS Q61K it was 1000 to 10000 nM; on NRAS G12C it was < 10 nM; at KRAS G12V it was 1000 to 10000 nM. The IC50 on KRAS G12D was 1000 to 10000 nM.
For `C=CC(=O)N1CC[C@H](C(=O)N(C)[C@H](C(=O)N[C@H]2Cc3nc(ns3)-c3ccc4c(c3)c(c(-c3cncnc3)n4CC)CC(C)(C)COC(=O)[C@@H]3CCCN(N3)C2=O)C(C)C)C1` [Example A285], the IC50 in the test with NCI-H358 (K-Ras G12C) was > 1000 nM; at NRAS WT, > 10000 nM; at K-Ras G12C, > 10000 nM; at NRAS Q61K it was > 10000 nM; at NRAS G12C it was > 10000 nM; on KRAS G12V, > 10000 nM. Moreover, on KRAS G12D, the half-inhibitory concentration (IC50) was > 10000 nM.
As for `C=CC(=O)N1CCO[C@@H]2CN(C(=O)N(C)[C@H](C(=O)N[C@H]3Cc4nc(cs4)-c4ccc5c(c4)c(c(-c4cccnc4[C@H](C)OC)n5CC)CC(C)(C)COC(=O)[C@@H]4CCCN(N4)C3=O)C(C)C)C[C@H]21` (atropisomer, axis not shown) [Example A543], the concentration for half-maximal inhibition (IC50) in the test with NCI-H358 (K-Ras G12C) was < 10 nM; at NRAS WT it was 100 to 1000 nM; at K-Ras G12C it was < 10 nM; at NRAS Q61K, 10 to 100 nM; on NRAS G12C it was < 10 nM; at KRAS G12V, 100 to 1000 nM. Also, on KRAS G12D, the IC50 lay within 1000 to 10000 nM.
